Among the data in ChEMBL document CHEMBL5338798, “An Analysis of Successful Hit-to-Clinical Candidate Pairs” (J Med Chem, 2023) are IC50 values, retold here.

The target in the test is T1, Tyrosine-protein phosphatase non-receptor type 11 (Homo sapiens, UniProt Q06124).
T1 sequence (Q06124 whole entry): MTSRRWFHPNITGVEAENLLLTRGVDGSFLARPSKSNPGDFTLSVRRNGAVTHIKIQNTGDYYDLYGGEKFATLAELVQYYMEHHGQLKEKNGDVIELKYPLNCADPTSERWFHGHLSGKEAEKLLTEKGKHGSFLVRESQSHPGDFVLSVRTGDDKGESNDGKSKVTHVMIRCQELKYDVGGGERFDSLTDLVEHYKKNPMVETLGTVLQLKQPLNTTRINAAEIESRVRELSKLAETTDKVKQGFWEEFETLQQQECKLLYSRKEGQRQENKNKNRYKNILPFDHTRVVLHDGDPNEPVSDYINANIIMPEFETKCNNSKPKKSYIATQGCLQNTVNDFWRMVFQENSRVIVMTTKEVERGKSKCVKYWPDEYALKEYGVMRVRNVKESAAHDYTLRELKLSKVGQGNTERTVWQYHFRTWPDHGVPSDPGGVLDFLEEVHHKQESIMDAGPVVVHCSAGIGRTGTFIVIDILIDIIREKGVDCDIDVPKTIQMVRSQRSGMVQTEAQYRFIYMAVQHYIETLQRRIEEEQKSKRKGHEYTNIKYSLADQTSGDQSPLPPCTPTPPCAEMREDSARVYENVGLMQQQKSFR
The test can be described thus: Inhibition of SHP2 (unknown origin).

Compound `CC1(N)CCN(c2cnc(Sc3cccc(Cl)c3Cl)c(N)n2)CC1` gave an IC50 of 30 nM.
